This is an account of results in patent US20120004235A1, “METHODS TO TREAT CANCER” (Rutgers, The State University of New Jersey, priority 2009, published 2012).

The subject of data set [1] is KB3-1 HeLa Human Cervical Carcinoma. In words: Human tumor cell CFU assay (Test B). The format is cell-based. The note with it: colony formation, continuous exposure 7-9 days; for IC90: read-out: IC90 Values (95% Lower and Upper Confidence Intervals). The procedure: (§1) For human tumor cell CFU assays, the cell lines which grow as monolayers, MDA-MB-231, HCT116, HT29, NCI-H460, KB3-1 and KBV-1 were grown in RPMI medium (Invitrogen/Gibco, Grand Island, N.Y.) supplemented with 5% fetal bovine serum (Invitrogen/Gibco, Grand Island, NY). The RPMI-8226 cell line grows in suspension.
(§2) For experiments, human tumor cells (1 103) were plated in 6-well plates in medium supplemented with 5% or 10% fetal bovine serum. The compounds were tested in concentrations over the range from 0.01 to 100 nanomolar in half-log intervals covering […] along with untreated control wells. In later experiments some cases the concentration ranges were refined to focus on the region of interest in the response curves. Each compound concentration was tested in duplicate wells. Cultures were exposed to the compounds continuously for 7-9 days at 37° C. in a humidified atmosphere of 5% carbon dioxide balance air. Each experiment was performed three independent times. Colonies were defined as clusters containing 30 or more cells.
(§3) For the monolayer cultures, colonies were visualized by staining with a preformulated crystal violet solution (Fisher Cat #291-472) which contained 0.41% crystal violet, 12% ethanol balance deionized water. To visualize the colonies, the medium was removed by aspiration; the monolayer was rinsed once with phosphate buffered saline which was removed by aspiration. Three drops of crystal violet solution was added to each well and the 6-well plate was rotated so that the crystal violet solution covered the surface area of each well. After 5 minutes exposure time, the wells were rinsed twice with phosphate buffered saline and the colonies were visible.
(§4) The values were expressed as the mean values with lower and upper 95% confidence intervals in nanomolar concentrations.

Data set [2] concerns HCT116 Human Colon Carcinoma. In words: Human tumor cell CFU assay (Test B). Type of data set: cell-based. Conditions: colony formation, continuous exposure 7-9 days; for IC50: read-out: IC50 Values (95% Lower and Upper Confidence Intervals); for IC90: read-out: IC90 Values (95% Lower and Upper Confidence Intervals). The procedure:
as §1, §2, §3, §4

Data set [3] relates to KB-V1 MDR1+ KB3-1 Subline. In words: Human tumor cell CFU assay (Test B). Type of data set: cell-based. The note with it: colony formation, continuous exposure 7-9 days. On the procedure: as §1, §2, §3, §4
Data set [4] deals with KBH5.0 BCRP+ KB3-1 Subline. In words: Human tumor cell CFU assay (Test B). The format is cell-based. The note with it: colony formation, continuous exposure 7-9 days; for IC50: read-out: IC50 Values (95% Lower and Upper Confidence Intervals). The procedure: as §1, §2, §3, §4
For data set [5], the system named is MDA-MB-231 Human Breast Carcinoma. In words: Human tumor cell CFU assay (Test B). Type of data set: cell-based. The note with it: colony formation, continuous exposure 7-9 days; for IC50: read-out: IC50 Values (95% Lower and Upper Confidence Intervals); for IC90: read-out: IC90 Values (95% Lower and Upper Confidence Intervals). The procedure:
as §1, §2, §3, §4

Data set [6] has as its system NCI-H460 Human Non-small Cell Lung Carcinoma. The data set can be described thus: Human tumor cell CFU assay (Test B). Type of data set: cell-based. The note with it: colony formation, continuous exposure 7-9 days; for IC50: read-out: IC50 Values (95% Lower and Upper Confidence Intervals); for IC90: read-out: IC90 Values (95% Lower and Upper Confidence Intervals). On the procedure:
as §1, §2, §3, §4

The test system of data set [7] is HT29 Human Colon Carcinoma. In words: Human tumor cell CFU assay (Test B). The format is cell-based. Conditions: colony formation, continuous exposure 7-9 days; for IC50: read-out: IC50 Values (95% Lower and Upper Confidence Intervals); for IC90: read-out: IC90 Values (95% Lower and Upper Confidence Intervals). The procedure:
as §1, §2, §3, §4

Data set [8] relates to NCI-H460 human non-small cell lung carcinoma xenograft. The data set can be described thus: Compound 2 citrate salt vs. NCI-H460 xenograft model (pemetrexed, topotecan, cisplatin controls). Conditions: qd×5.
Data set [9] has as its system RPMI-8226 Human Multiple Myeloma. The data set can be described thus: Human tumor cell CFU assay (Test B). Conditions: colony formation in agar, continuous exposure 7-9 days. The format is cell-based. The procedure: as §1
For human tumor cell CFU assays, RPMI-8226 cells were grown in 0.35% agar in DMEM-F12 medium supplemented with 10% fetal bovine serum over a base layer of 0.5% agar in DMEM-F12 medium supplemented with 10% fetal bovine serum
as §2, §4

The test system of data set [10] is MDA-MB-231 human breast tumor xenograft. The note with it: qd×5.

For orientation: IC50 means the midpoint of a concentration-inhibition curve. What is called IC90 is the point of the concentration-response curve where the effect stands at 90%. One may read the melting point as the temperature, or range, at which the solid turns liquid.

Where two headings read alike, the source gives them in different places.

Take `CC[C@@]1(O)C(=O)OCc2c1cc1n(c2=O)Cc2cc3c(CN(C)C)c(O)ccc3nc2-1` [Topotecan, reference compound]: the IC50 in [1] (Homo sapiens) was 32.7 nM; in data set [2] (Homo sapiens, HCT-116) it was 8.5 nM; in [3] (Homo sapiens), 75 nM; in [4] (Homo sapiens, KB 3-1), 32 nM; in [5] (Homo sapiens, MDA-MB-231), 5.6 nM; in [6] (Homo sapiens, NCI-H460), 18.2 nM. For the same compound, the IC50 was found to be 2.9 nM in data set [7] (Homo sapiens, HT-29) and 12.7 nM in data set [9] (Homo sapiens, RPMI-8226). In addition, the IC90 in data set [1] (Homo sapiens) was 107 nM; in [2] (Homo sapiens, HCT-116), 26.3 nM; in [3] (Homo sapiens), 257 nM; in data set [4] (Homo sapiens, KB 3-1) it was 115 nM; in data set [5] (Homo sapiens, MDA-MB-231), 19.5 nM; in data set [6] (Homo sapiens, NCI-H460), 52.5 nM. Besides, the IC90 in [7] (Homo sapiens, HT-29) was determined as 11.2 nM; in data set [9] (Homo sapiens, RPMI-8226), 43.2 nM. The body weight loss in data set [8] (2 and 2.5 mg/kg/day IP) is on record as above 30%.
`COc1cc2c(=O)n(CCN(C)C)c3c4cc5c(cc4ncc3c2cc1OC)OCO5` [Compound 1]: the IC50 is 1.5 nM in data set [1] (Homo sapiens); 1.7 nM in data set [2] (Homo sapiens, HCT-116); 1.8 nM in data set [3] (Homo sapiens); 1.8 nM in data set [4] (Homo sapiens, KB 3-1); 0.3 nM in data set [5] (Homo sapiens, MDA-MB-231); 2.3 nM in data set [6] (Homo sapiens, NCI-H460). Further, the IC50 in data set [7] (Homo sapiens, HT-29) was determined as 1.3 nM; in data set [9] (Homo sapiens, RPMI-8226), 1.8 nM. Further, the IC90 amounted to 5.2 nM in [1] (Homo sapiens); 5.6 nM in data set [2] (Homo sapiens, HCT-116); 5.7 nM in data set [3] (Homo sapiens); 5.8 nM in data set [4] (Homo sapiens, KB 3-1); 1.2 nM in [5] (Homo sapiens, MDA-MB-231); 6.2 nM in [6] (Homo sapiens, NCI-H460). Also, the IC90 is 4.3 nM in [7] (Homo sapiens, HT-29) and 5.8 nM in [9] (Homo sapiens, RPMI-8226).
Take `COc1cc2c(=O)n(CCN3CCCC3)c3c4cc5c(cc4nnc3c2cc1OC)OCO5` [Example 5, 2,3-Dimethoxy-8,9-methylenedioxy-11-[2-(pyrrolidin-1-yl)ethyl]-11H-5,6,11-triaza-chrysen-12-one]: the melting point worked out at 229 °C.
As to `COc1cc2c(C(=O)NCC(C)(C)N(C)C)cc3c4cc5c(cc4ncc3c2cc1OC)OCO5` [Compound 3], the IC50 in data set [1] (Homo sapiens) came out at 0.8 nM; in data set [2] (Homo sapiens, HCT-116), 0.4 nM; in data set [3] (Homo sapiens), 0.6 nM; in data set [4] (Homo sapiens, KB 3-1), 0.6 nM; in [5] (Homo sapiens, MDA-MB-231), 0.5 nM; in data set [6] (Homo sapiens, NCI-H460), 0.9 nM. Also, the IC50 was determined as 0.5 nM in [7] (Homo sapiens, HT-29) and 0.7 nM in [9] (Homo sapiens, RPMI-8226). Also, the IC90 amounted to 2.8 nM in data set [1] (Homo sapiens); 1.7 nM in data set [2] (Homo sapiens, HCT-116); 2.8 nM in data set [3] (Homo sapiens); 2.3 nM in [4] (Homo sapiens, KB 3-1); 0.9 nM in data set [5] (Homo sapiens, MDA-MB-231); 3 nM in data set [6] (Homo sapiens, NCI-H460). Further, the IC90 in data set [7] (Homo sapiens, HT-29) was found to be 1.5 nM; in data set [9] (Homo sapiens, RPMI-8226) it was 2.5 nM.
Regarding `CCc1c2c(nc3ccc(O)cc13)-c1cc3c(c(=O)n1C2)COC(=O)[C@]3(O)CC` [SN-38, 7-ethyl-10-hydroxyl-camptothecin, reference compound], the IC50 in data set [1] is 5.3 nM; in [2] it was 2.7 nM; in data set [3], 15 nM; in [4], 6.1 nM; in [5], 0.7 nM; in data set [6], 4.7 nM. Besides, the IC50 in data set [7] stood at 0.5 nM; in [9], 0.9 nM. Also, the IC90 in data set [1] amounted to 19.1 nM; in [2], 8.4 nM; in data set [3], 55 nM; in data set [4], 18.8 nM; in data set [5], 2 nM; in [6] it was 13.3 nM. Also, the figures for the 90% effect concentration (IC90) in data set [7] and in data set [9] were 1.8 nM and 3 nM, respectively.
As to `COc1cc2c(=O)n(CCN(C)C(C)C)c3c4cc5c(cc4ncc3c2cc1OC)OCO5` [Compound 4], the IC50 was 1 nM in [1] (Homo sapiens); 1.2 nM in [2] (Homo sapiens, HCT-116); 1.4 nM in data set [3] (Homo sapiens); 1.3 nM in data set [4] (Homo sapiens, KB 3-1); 0.3 nM in [5] (Homo sapiens, MDA-MB-231); 3.4 nM in [6] (Homo sapiens, NCI-H460). The IC50 came to 0.5 nM in [7] (Homo sapiens, HT-29) and 0.4 nM in data set [9] (Homo sapiens, RPMI-8226). The IC90 in data set [1] (Homo sapiens) was determined as 4 nM; in data set [2] (Homo sapiens, HCT-116) it was 4.4 nM; in data set [3] (Homo sapiens), 6.9 nM; in [4] (Homo sapiens, KB 3-1), 6 nM; in [5] (Homo sapiens, MDA-MB-231) it was 1 nM; in data set [6] (Homo sapiens, NCI-H460) it was 11 nM. Also, the IC90 is 1.9 nM in [7] (Homo sapiens, HT-29) and 1.5 nM in data set [9] (Homo sapiens, RPMI-8226).
Regarding `O=C(O)C(=O)O.[NH-][C@@H]1CCCC[C@H]1[NH-].[Pt+2]` [Oxaliplatin, reference compound], in data set [10] (5 and 6.5 mg/kg/day IP), the “delay in tumor growth” value came out at 13 days and the tolerability result is on record as “well tolerated”. The “TGI (T/C)” value in data set [10] (both dosages, 5 and 6.5 mg/kg/day IP) was 45.1-47.6%.
As for `COc1cc2c(=O)n(CCO)c3c4cc5c(cc4ncc3c2cc1OC)OCO5` [Example 13, 8,9-Dimethoxy-2,3-methylenedioxy-5-[2-(hydroxy)ethyl]-5H-dibenzo[c,h]1,6-naphthyridin-6-one], the melting point was 285 to 286 °C.
Same read-out and setting: with `COc1cc2c(=O)n(CCN3CCCC3)c3c4cc5c(cc4ncc3c2cc1OC)OCO5` [Example 9, 8,9-Dimethoxy-2,3-methylenedioxy-5-[2-(pyrrolidin-1-yl)ethyl]-5H-dibenzo[c,h]1,6-naphthyridin-6-one] the figure was 255 to 257 °C (dec.); with `COc1cc2c(cc1OC)-c1cnc3cc4c(cc3c1N(CCN(C)C)C2)OCO4` [Example 17, 8,9-Dimethoxy-2,3-methylenedioxy-5-[2-(N,N-dimethylamino)ethyl]-5,6-dihydro-dibenzo[c,h]1,6-naphthyridine], 271 to 273 °C (dec.).
For the compound `COc1cccc2c1C(=O)c1c(O)c3c(c(O)c1C2=O)C[C@@](O)(C(=O)CO)C[C@@H]3O[C@H]1C[C@H](N)[C@H](O)[C@H](C)O1` [Doxorubicin, reference compound], the toxic deaths entry in [10] (both dosages, 2.5 and 3 mg/kg/day IP) is on record as “there were toxic deaths”.
In turn, `COc1cc2c(=O)n(C(C)CN(C)C)c3c4cc5c(cc4ncc3c2cc1OC)OCO5` (stereo not shown) [Example 8, 8,9-Dimethoxy-2,3-methylenedioxy-5-[2-(N,N-dimethylamino)-1-methylethyl]-5H-dibenzo[c,h]1,6-naphthyridin-6-one] had a melting point of 186 to 187 °C.
The same measure, in the same setting: under `COc1cc2c(=O)n(CCN3CCCCC3)c3c4cc5c(cc4nnc3c2cc1OC)OCO5` [Example 6, 2,3-Dimethoxy-8,9-methylenedioxy-11-[2-(piperidin-1-yl)ethyl]-11H-5,6,11-triaza-chrysen-12-one] stands 294 to 295 °C.
Regarding `Nc1nc2[nH]cc(CCc3ccc(C(=O)N[C@@H](CCC(=O)O)C(=O)O)cc3)c2c(=O)[nH]1` [Pemetrexed, reference compound], in [8] (100 and 150 mg/kg/day IP), the antitumor activity entry is given as “not considered active” and the body weight loss is listed as at most 20%.
As for `COc1cc2c(=O)n(CCOCCO)c3c4cc5c(cc4ncc3c2cc1OC)OCO5` [Example 14, 8,9-Dimethoxy-2,3-methylenedioxy-5-[2-(2-hydroxyethoxy)ethyl]-5H-dibenzo[c,h]1,6-naphthyridin-6-one], the melting point was 235 °C.
